The text below walks through data of patent US20210261621A1, “Preparation of Dilipid Polymixins and Use Thereof as Antimicrobial Adjuvants” (priority 2018, published 2021).

Data set [1] deals with E. coli CANWARD-2011 97615. The format is cell-based, Escherichia coli. The essentials: (§1)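 Broth microdilution per CLSI in Mueller-Hinton broth, with 2-fold serial compound dilutions and inoculum of approximately 5×10^5 CFU/mL from overnight cultures. Plates were incubated 18 h at 37° C.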
For data set [2], the system named is P. aeruginosa PA259-96918. The format is cell-based, Pseudomonas aeruginosa. Particulars: P. aeruginosa PA259-96918. From the text: (§2) Bacterial strains were either obtained from the American Type Culture Collection (ATCC), Canadian National Intensive Care Unit (CAN-ICU) surveillance study or the Canadian Ward Surveillance (CANWARD) study. Strains from both CAN-ICU and CANWARD are isolates recovered from patients diagnosed with a presumed infectious disease that were admitted in a participating medical center across Canada. Efflux-deficient strain PAO200 (lacking MexAB-OprM efflux system) and PA0750 (lacking MexAB-OprM, MexCD-OprJ, MexEF-OprN, MexJK and MexXY efflux systems, and the outer membrane protein OpmH) were kindly gifted by Dr. Ayush Kumar (University of Manitoba).
(§3) The in vitro antibacterial activity of the compounds studied were assessed by broth microdilution susceptibility testing following CLSI guidelines. Bacterial cultures were grown overnight prior to the assay. The overnight grown cultures were diluted in saline to 0.5 McFarland turbidity, followed by 1:50 dilution in Mueller-Hinton broth (MHB) for inoculation to a final concentration of approximately 5×10^5 colony forming units/mL. Testing was performed on 96-well plates where the tested compounds were 2-fold serially diluted in MHB and incubated with equal volumes of bacterial inoculum at 37° C. for 18 h. […] Wells containing MHB with or without bacterial cells were used as positive or negative control, respectively.

For data set [3], the system named is P. aeruginosa PAO1. It is filed as cell-based, Pseudomonas aeruginosa. Particulars: P. aeruginosa PAO1 (wild type).
Text: as §2, §3

Data set [4] deals with P. aeruginosa PA095. The format is cell-based, Pseudomonas aeruginosa. Particulars: P. aeruginosa PA095.
Text: as §2, §3

Data set [5] concerns P. aeruginosa PA101885. The format is cell-based, Pseudomonas aeruginosa. The conditions noted are these: P. aeruginosa PA101885.
Text: as §2, §3

Data set [6] concerns P. aeruginosa PA262-101856. The format is cell-based, Pseudomonas aeruginosa. The conditions noted are these: P. aeruginosa PA262-101856.
Text: as §2, §3

For data set [7], the system named is P. aeruginosa ATCC 27853. The format is cell-based, Pseudomonas aeruginosa. The conditions noted are these: P. aeruginosa ATCC 27853.
Text: as §2, §3

The subject of data set [8] is P. aeruginosa CAN-ICU 62308. It is filed as cell-based, Pseudomonas aeruginosa. Particulars: P. aeruginosa CAN-ICU 62308.
Text: as §2, §3

Data set [9] relates to P. aeruginosa PA264-104354. The format is cell-based, Pseudomonas aeruginosa. Particulars: P. aeruginosa PA264-104354.
Text: as §2, §3

The test system of data set [10] is P. aeruginosa PA100036. The format is cell-based, Pseudomonas aeruginosa. Particulars: P. aeruginosa PA100036.
Text: as §2, §3

The subject of data set [11] is P. aeruginosa PA260-97103. It is filed as cell-based, Pseudomonas aeruginosa. Particulars: P. aeruginosa PA260-97103.
Text: as §2, §3

Data set [12] concerns pig erythrocytes. Particulars: red cells of pig, 1 h, 512.
Description: The ability of the compounds to lyse eukaryotic red blood cells was measured by the amount of hemoglobin released upon incubation with pig erythrocytes, following a published protocol [30]. Briefly, fresh pig blood (generously provided by Dr. Richard Hodges, Director of Animal Care and Veterinary Services of the University of Manitoba) drawn from a pig's antecubital vein was centrifuged at 1000 g for 5 min at 4° C., washed with phosphate-buffered saline (PBS) three times, and re-suspended in the same buffer, consecutively. Compounds at study were 2-fold serially diluted in PBS on a 96-well plate and mixed with equal volumes of erythrocyte solution. Post 1 h incubation at 37° C., the intact cells were pelleted by centrifugation at 1000 g for 5 min at 4° C. Resulting supernatant was then transferred to a new 96-well plate. The hemoglobin released was then measured via an EMax Plus microplate reader (Molecular Devices, USA) at 570 nm wavelength. Erythrocytes in PBS with or without 0.1% Triton X-100 were used as positive or negative control, respectively.
Data set [13] concerns E. cloacae 117029. It is filed as cell-based, Enterobacter cloacae. The conditions noted are these: E. cloacae 117029.
Text: as §2, §3

Data set [14] deals with A. baumannii AB027. The format is cell-based, Acinetobacter baumannii. Particulars: A. baumannii AB027. The essentials: as §1
The test system of data set [15] is A. baumannii CAN-ICU 63169. It is filed as cell-based, Acinetobacter baumannii. Particulars: A. baumannii CAN-ICU 63169. The gist of the method: as §1
For data set [16], the system named is A. baumannii ATCC 17978. The format is cell-based, Acinetobacter baumannii. Particulars: A. baumannii ATCC 17978. The essentials:
as §1

Data set [17] relates to A. baumannii LAC-4. The format is cell-based, Acinetobacter baumannii. Particulars: A. baumannii LAC-4. The gist of the method:
as §1

Data set [18] relates to E. coli 94474. It is filed as cell-based, Escherichia coli. The conditions noted are these: 94474. Here is the method: (§4) We then addressed the possibility for the dilipid polymyxins to display enhanced antibacterial activity against colistin-resistant Gram-negative pathogens. […] The extended hydrophobic region of the dilipid polymyxin may provide additional hydrophobic interactions to the outer membrane of colistin-resistant organisms. Eight MDR colistin-resistant Gram-negative bacterial isolates were tested, including two E. coli isolates harboring the mcr-1 plasmid-encoded polymyxin resistance gene. We found no difference between the antibacterial activity of dilipid polymyxins and colistin against colistin-resistant Gram-negative bacteria (Table 3).
as §2, §3

For data set [19], the system named is E. coli 94393. It is filed as cell-based, Escherichia coli. The conditions noted are these: 94393. Here is the method: as §4, §2, §3

One may read the MIC as the smallest concentration in the dilution series that meets the test's criterion for growth inhibition.

SMILES strings stand for the structures. Values after ≈ are worked out from the molar mass of the structure shown. Positions of bridges follow the written chain, without caps; N, C: chain ends. Non-standard residues stand in square brackets, D forms with d. Residues, ends and D or L forms follow the SMILES beside them. *: point of attachment. Acetyl(1-adamantyl) = O=C(CC12CC3CC(CC(C3)C1)C2)*; Dab = NCC[C@H](N)C(=O)O

Regarding `CC(C)C[C@@H]1NC(=O)[C@@H](Cc2ccccc2)NC(=O)[C@H](CCN)NC(=O)[C@@H](NC(=O)[C@H](CCN)NC(=O)[C@@H](NC(=O)[C@H](CCNC(=O)CC23CC4CC(CC(C4)C2)C3)NC(=O)CC23CC4CC(CC(C4)C2)C3)[C@@H](C)O)CCNC(=O)[C@H]([C@@H](C)O)NC(=O)[C@H](CCN)NC(=O)[C@H](CCN)NC1=O` [Compound 4, Diadamantane Acetic Acid (Di-Adamantyl) Polymyxin] ({Acetyl(1-adamantyl)}-[Dab](Acetyl(1-adamantyl))T[Dab][Dab][Dab][dF]L[Dab][Dab]T; lactam 4-C), the MIC in [1] was 64 µg/mL (≈ 45.2 µM); in [2], 8 µg/mL (≈ 5.65 µM); in data set [3], 4 µg/mL (≈ 2.83 µM); in [4], 4 µg/mL (≈ 2.83 µM); in [5] it was 8 µg/mL (≈ 5.65 µM); in data set [6], 8 µg/mL (≈ 5.65 µM). For the same compound, the MIC in data set [7] was 16 µg/mL (≈ 11.3 µM); in data set [8], 16 µg/mL (≈ 11.3 µM); in data set [9] it was 8 µg/mL (≈ 5.65 µM); in data set [10], 8 µg/mL (≈ 5.65 µM); in data set [11] it was 4 µg/mL (≈ 2.83 µM); in data set [13], 4 µg/mL (≈ 2.83 µM). The MIC was 64 µg/mL (≈ 45.2 µM) in [14]; 128 µg/mL (≈ 90.4 µM) in [15]; 32 µg/mL (≈ 22.6 µM) in data set [16]; 16 µg/mL (≈ 11.3 µM) in [17]; 8 µg/mL (≈ 5.65 µM) in [18]; 16 µg/mL (≈ 11.3 µM) in data set [19]. Also, the “% Hemolysis at 512 μg/mL of polymyxin” value in data set [12] is 3.2 ± 0.4%.
